Source: patent US20130252930A1 (BIOMARIN PHARMACEUTICAL INC., priority 2010, published 2013)

molecular target: T1, CYP17 (human testicular microsome) (Homo sapiens, UniProt P05093); experiment: CYP17 enzymatic assay (% inhibition at 1 nM) (Biological Example 12); assay type: biochemical; conditions: compound at 1 nM, read-out: Biological Example No. 12: CYP17 enzymatic assay % inhibition at 1 nM
T1 construct: using microsomal fraction from human testis (Celsis Cat #S00110) as the enzyme source; tissue Celsis S00110; host or cells: human testis microsomal fraction
T1 sequence (P05093 1-508): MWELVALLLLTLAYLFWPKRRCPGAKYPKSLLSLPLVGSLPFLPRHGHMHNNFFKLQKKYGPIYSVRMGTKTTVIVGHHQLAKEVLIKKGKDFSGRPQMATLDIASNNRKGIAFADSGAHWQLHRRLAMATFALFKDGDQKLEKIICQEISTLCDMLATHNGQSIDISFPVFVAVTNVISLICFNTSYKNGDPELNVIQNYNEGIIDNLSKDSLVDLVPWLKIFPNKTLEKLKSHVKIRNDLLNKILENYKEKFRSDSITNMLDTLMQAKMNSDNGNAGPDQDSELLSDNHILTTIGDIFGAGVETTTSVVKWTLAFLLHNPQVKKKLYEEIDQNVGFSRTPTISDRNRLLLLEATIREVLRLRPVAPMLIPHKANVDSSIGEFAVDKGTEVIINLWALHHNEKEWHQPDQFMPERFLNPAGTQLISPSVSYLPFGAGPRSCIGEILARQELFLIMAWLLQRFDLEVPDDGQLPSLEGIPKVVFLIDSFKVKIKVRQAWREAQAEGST

| SMILES | inhibition at 0.001 µM |
| --- | --- |
| C[C@H]1C2CCC3C(CC[C@]4(C)C(c5cncc(C(F)F)c5)=CCC34)[C@@]2(C)CC[C@@H]1O (stereo partly drawn) [Compound 307, (3S,4S,10R,13S)-17-(5-(difluoromethyl)pyridin-3-yl)-4,10,13-trimethyl-2,3,4,5,6,7,8,9,10,11,12,13,14,15-tetradecahydro-1H-cyclopenta[a]phenanthren-3-ol] | 10 to 50% |
| C[C@H]1C2CCC3C(CC[C@]4(C)C(c5cncc(C(F)F)c5)=CCC34)[C@@]2(C)CC[C@H]1O (stereo partly drawn) [Compound 308, (3R,4S,10R,13S)-17-(5-(difluoromethyl)pyridin-3-yl)-4,10,13-trimethyl-2,3,4,5,6,7,8,9,10,11,12,13,14,15-tetradecahydro-1H-cyclopenta[a]phenanthren-3-ol] | < 10% |
| CC1=C2CCC3C(CC[C@]4(C)C(c5cccnc5)=CCC34)[C@@]2(C)CC/C1=N\O (stereo partly drawn) [Compound 364, (10R,13S,E)-4,10,13-trimethyl-17-(pyridin-3-yl)-6,7,8,9,10,11,12,13,14,15-decahydro-1H-cyclopenta[a]phenanthren-3(2H)-one oxime] | 10 to 50% |
| C[C@]12CC(O)CC1CCC1C2CC[C@]2(C)C(c3cncc(Cl)c3)=CCC12 (stereo partly drawn) [Compound 397, (3aS,5aS)-6-(5-chloropyridin-3-yl)-3a,5a-dimethyl-1,2,3,3a,3b,4,5,5a,8,8a,8b,9,10,10a-tetradecahydrodicyclopenta[a,f]naphthalen-2-ol] | 10 to 50% |
| C[C@]12CC[C@H]3[C@@H](CCC45CC4C(O)CC[C@]35C)[C@@H]1CC=C2c1cncc(F)c1 (stereo partly drawn) [Compound 412, (4aR,6aS)-7-(5-fluoropyridin-3-yl)-4a,6a-dimethyl-1a,2,3,4,4a,4b,5,6,6a,9,9a,9b,10,11-tetradecahydro-1H-cyclopenta[a]cyclopropa[j]phenanthren-2-ol] | 10 to 50% |
| CC(=O)NC1CC[C@@]2(C)C(CCC3C2CC[C@]2(C)C(c4cccnc4)=CCC32)C1C (stereo partly drawn) [Compound 413, N-((10R,13S)-4,10,13-trimethyl-17-(pyridin-3-yl)-2,3,4,5,6,7,8,9,10,11,12,13,14,15-tetradecahydro-1H-cyclopenta[a]phenanthren-3-yl)acetamide] | < 10% |
| CCNC(=O)NC1CC[C@@]2(C)C(CCC3C2CC[C@]2(C)C(c4cccnc4)=CCC32)C1C (stereo partly drawn) [Compound 414, 1-ethyl-3-((10R,13S)-4,10,13-trimethyl-17-(pyridin-3-yl)-2,3,4,5,6,7,8,9,10,11,12,13,14,15-tetradecahydro-1H-cyclopenta[a]phenanthren-3-yl)urea] | < 10% |
| CC1C[C@@]2(C)C(CC[C@@H]3[C@@H]2CC[C@]2(C)C(c4cccnc4)=CC[C@@H]32)C(C)C1=O (stereo partly drawn) [Compound 415, (10R,13S)-2,4,10,13-tetramethyl-17-(pyridin-3-yl)-4,5,6,7,8,9,10,11,12,13,14,15-dodecahydro-1H-cyclopenta[a]phenanthren-3(2H)-one] | < 10% |
| CC1C[C@@]2(C)C(CC[C@@H]3[C@@H]2CC[C@]2(C)C(c4cccnc4)=CC[C@@H]32)C(C)C1O (stereo partly drawn) [Compound 416, (10R,13S)-2,4,10,13-tetramethyl-17-(pyridin-3-yl)-2,3,4,5,6,7,8,9,10,11,12,13,14,15-tetradecahydro-1H-cyclopenta[a]phenanthren-3-ol] | 10 to 50% |
| CC1(O)C=C2CC[C@@H]3[C@H](CC[C@]4(C)C(c5cccnc5)=CC[C@@H]34)[C@@]2(C)CC1 (stereo partly drawn) [Compound 422, (10R,13S)-3,10,13-trimethyl-17-(pyridin-3-yl)-2,3,6,7,8,9,10,11,12,13,14,15-dodecahydro-1H-cyclopenta[a]phenanthren-3-ol] | 10 to 50% |
| CC1C[C@@H]2[C@H](CC[C@]3(C)C(c4cccnc4)=CC[C@@H]23)[C@@]2(C)CCC(C)(O)C=C12 (stereo partly drawn) [Compound 423, (10R,13S)-3,6,10,13-tetramethyl-17-(pyridin-3-yl)-2,3,6,7,8,9,10,11,12,13,14,15-dodecahydro-1H-cyclopenta[a]phenanthren-3-ol] | 10 to 50% |
| CC1CC2C(CC[C@]3(C)C(c4cccnc4)=CCC23)[C@@]2(C)CC[C@@](C)(O)CC12 (stereo partly drawn) [Compound 424, (3R,10S,13S)-3,6,10,13-tetramethyl-17-(pyridin-3-yl)-2,3,4,5,6,7,8,9,10,11,12,13,14,15-tetradecahydro-1H-cyclopenta[a]phenanthren-3-ol] | 10 to 50% |
| CC1CC2C(CC[C@]3(C)C(c4cccnc4)=CCC23)[C@@]2(C)CC[C@](C)(O)CC12 (stereo partly drawn) [Compound 425, (3S,10S,13S)-3,6,10,13-tetramethyl-17-(pyridin-3-yl)-2,3,4,5,6,7,8,9,10,11,12,13,14,15-tetradecahydro-1H-cyclopenta[a]phenanthren-3-ol] | 10 to 50% |
| CN1C(=O)CC[C@@]2(C)C1=CCC1C2CC[C@]2(C)C(c3cncc(C(F)F)c3)=CCC12 (stereo partly drawn) [Compound 429, (4aR,6aS)-7-(5-(difluoromethyl)pyridin-3-yl)-1,4a,6a-trimethyl-4,4a,4b,5,6,6a,9,9a,9b,10-decahydro-1H-indeno[5,4-f]quinolin-2(3H)-one] | < 10% |
| CN1C(=O)CC[C@@]2(C)C1=CC[C@@H]1[C@@H]2CC[C@]2(C)C(c3cnccc3F)=CC[C@@H]12 [Compound 430, (4aR,6aS)-7-(4-fluoropyridin-3-yl)-1,4a,6a-trimethyl-4,4a,4b,5,6,6a,9,9a,9b,10-decahydro-1H-indeno[5,4-f]quinolin-2(3H)-one] | 10 to 50% |
| C[C@]12CCC(O)(CCCO)CC1CC[C@@H]1[C@@H]2CC[C@]2(C)C(c3cccnc3)=CC[C@@H]12 (stereo partly drawn) [Compound 440, (10S,13S)-3-(3-hydroxypropyl)-10,13-dimethyl-17-(pyridin-3-yl)-2,3,4,5,6,7,8,9,10,11,12,13,14,15-tetradecahydro-1H-cyclopenta[a]phenanthren-3-ol] | 10 to 50% |

same assay, conditions: compound at 1 nM, read-out: CYP17 enzymatic assay % inhibition at 1 nM (Biological Example No. 12)

| SMILES | inhibition at 0.001 µM |
| --- | --- |
| C[C@]12CCC3C(CC4OC45C[C@@H](O)CC[C@]35C)C1=CC=C2c1cccnc1 (stereo partly drawn) [Compound 439, (3S,9aS,11bR)-9a,11b-dimethyl-9-(pyridin-3-yl)-1,2,3,4,5a,6,6a,9a,10,11,11a,11b-dodecahydrocyclopenta[1,2]phenanthro[8a,9-b]oxiren-3-ol] | > 50% |
| COC1CC[C@@]2(C)C(=CCC3C2CC[C@]2(C)C(c4cccnc4)=CCC32)C1 (stereo partly drawn) [Compound 453, 3-((10R,13S)-3-methoxy-10,13-dimethyl-2,3,4,7,8,9,10,11,12,13,14,15-dodecahydro-1H-cyclopenta[a]phenanthren-17-yl)pyridine] | < 10% |
| COC1CC[C@@]2(C)C(=CCC3C2CC[C@]2(C)C(c4cncc(C)c4)=CCC32)C1 (stereo partly drawn) [Compound 454, 3-((10R,13S)-3-methoxy-10,13-dimethyl-2,3,4,7,8,9,10,11,12,13,14,15-dodecahydro-1H-cyclopenta[a]phenanthren-17-yl)-5-methylpyridine] | < 10% |
| CCc1cncc(C2=CC[C@H]3[C@@H]4CC[C@H]5C[C@@H](OC)CC[C@]5(C)[C@H]4CC[C@]23C)c1 [Compound 455, 3-ethyl-5-((3S,5S,8R,9S,10S,13S,14S)-3-methoxy-10,13-dimethyl-2,3,4,5,6,7,8,9,10,11,12,13,14,15-tetradecahydro-1H-cyclopenta[a]phenanthren-17-yl)pyridine] | 10 to 50% |
| COc1cncc(C2=CC[C@H]3[C@@H]4CC[C@H]5C[C@@H](OC)CC[C@]5(C)[C@H]4CC[C@]23C)c1 [Compound 456, 3-methoxy-5-((3S,5S,8R,9S,10S,13S,14S)-3-methoxy-10,13-dimethyl-2,3,4,5,6,7,8,9,10,11,12,13,14,15-tetradecahydro-1H-cyclopenta[a]phenanthren-17-yl)pyridine] | 10 to 50% |
| CCOc1cncc(C2=CC[C@H]3[C@@H]4CC[C@H]5C[C@@H](OC)CC[C@]5(C)[C@H]4CC[C@]23C)c1 [Compound 457, 3-ethoxy-5-((3S,5S,8R,9S,10S,13S,14S)-3-methoxy-10,13-dimethyl-2,3,4,5,6,7,8,9,10,11,12,13,14,15-tetradecahydro-1H-cyclopenta[a]phenanthren-17-yl)pyridine] | 10 to 50% |
| CO[C@H]1CC[C@@]2(C)[C@@H](CC[C@@H]3[C@@H]2CC[C@]2(C)C(c4cnccc4C)=CC[C@@H]32)C1 [Compound 458, 3-((3S,5S,8R,9S,10S,13S,14S)-3-methoxy-10,13-dimethyl-2,3,4,5,6,7,8,9,10,11,12,13,14,15-tetradecahydro-1H-cyclopenta[a]phenanthren-17-yl)-4-methylpyridine] | 10 to 50% |

same assay, conditions: test compound at 1 nM, read-out: CYP17 enzymatic assay percent inhibition at 1 nM (Biological Example No. 12)

| inhibition at 0.001 µM | SMILES |
| --- | --- |
| 10 to 50% | CC1(O)CC2CC[C@@H]3[C@H](CC[C@]4(C)C(c5cccnc5)=CC[C@@H]34)[C@@]2(C)C1 (stereo partly drawn) [Compound 400, (3aS,5aS)-2,3a,5a-trimethyl-6-(pyridin-3-yl)-1,2,3,3a,3b,4,5,5a,8,8a,8b,9,10,10a-tetradecahydrodicyclopenta[a,f]naphthalen-2-ol] |
| 10 to 50% | C[C@]12CC(F)(F)CC1CCC1C2CC[C@]2(C)C(c3cccnc3)=CCC12 (stereo partly drawn) [Compound 407, 3-((8aS,10aS)-7,7-difluoro-8a,10a-dimethyl-3,3a,3b,4,5,5a,6,7,8,8a,8b,9,10,10a-tetradecahydrodicyclopenta[a,f]naphthalen-1-yl)pyridine] |
